According to patent publication US9745299B2, “Substituted tricyclic benzimidazoles as kinase inhibitors” (SELVITA SA, priority 2012, dated 2017):
Where a name gives a salt, the structure may show the parent alone.

Key:
CDK8/CyclinC = target: T1, CDK8/CyclinC (Homo sapiens, UniProt P49336); test: ADP-Glo Kinase Assay, CDK8/CyclinC; assay type: biochemical; settings: read-out: % inhibition at 1 μM CDK8/CyclinC; note: ATP at apparent Km (53 µM)
T1 construct: purchased ProQinase, Freiburg, Germany
Method: (§1) Testing of the compounds described in this invention was carried out using the ADP-Glo™ Kinase Assay from Promega Corporation (Madison, Wis., USA).
(§2) The ADP-Glo™ Kinase Assay is a luminescent ADP detection assay to measure kinase activity by quantifying the amount of ADP produced during a kinase reaction. The kinase assay is performed in kinase assay buffer (5 mM MOPS, pH 7.5, 5 mM MgCl2, 0.4 mM EDTA, 1.5 mM DTT). Test samples initially dissolved in DMSO at 10 mM were diluted with the assay buffer to 1000 nM. A 30 μL volume/well of a mixture of substrates containing ATP (final ATP concentration in each kinase assay was equal to its apparent ATP Km).
(§3) The assay was performed in two steps: first, after the kinase reaction, an equal volume of ADP-Glo™ Reagent was added to terminate the kinase reaction and deplete the remaining ATP. Second, the Kinase Detection Reagent was added to simultaneously convert ADP to ATP and allowed the newly synthesized ATP to be measured using a luciferase/luciferin reaction. The luminescent signal generated was proportional to the ADP concentration produced and was correlated with kinase activity.

CDK9/CyclinT = target: T2, CDK9/CyclinT (Homo sapiens, UniProt P50750); test: ADP-Glo Kinase Assay, CDK9/CyclinT; assay type: biochemical; settings: read-out: % inhibition at 1 μM CDK9/CyclinT; note: ATP at apparent Km (26 µM)
T2 construct: purchased Proqinase, Freiburg, Germany
T2 sequence (P50750 whole entry): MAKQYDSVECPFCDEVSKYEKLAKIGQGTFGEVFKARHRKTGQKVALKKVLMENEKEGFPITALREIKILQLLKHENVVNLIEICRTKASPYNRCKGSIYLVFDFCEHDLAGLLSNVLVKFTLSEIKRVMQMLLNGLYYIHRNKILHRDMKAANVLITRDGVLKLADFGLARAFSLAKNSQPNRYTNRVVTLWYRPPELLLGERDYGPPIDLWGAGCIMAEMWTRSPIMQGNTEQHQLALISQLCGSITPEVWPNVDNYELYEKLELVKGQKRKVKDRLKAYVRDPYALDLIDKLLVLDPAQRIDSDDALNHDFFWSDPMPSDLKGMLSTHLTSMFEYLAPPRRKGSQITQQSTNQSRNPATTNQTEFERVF
T2 sequence (O60563 whole entry partner): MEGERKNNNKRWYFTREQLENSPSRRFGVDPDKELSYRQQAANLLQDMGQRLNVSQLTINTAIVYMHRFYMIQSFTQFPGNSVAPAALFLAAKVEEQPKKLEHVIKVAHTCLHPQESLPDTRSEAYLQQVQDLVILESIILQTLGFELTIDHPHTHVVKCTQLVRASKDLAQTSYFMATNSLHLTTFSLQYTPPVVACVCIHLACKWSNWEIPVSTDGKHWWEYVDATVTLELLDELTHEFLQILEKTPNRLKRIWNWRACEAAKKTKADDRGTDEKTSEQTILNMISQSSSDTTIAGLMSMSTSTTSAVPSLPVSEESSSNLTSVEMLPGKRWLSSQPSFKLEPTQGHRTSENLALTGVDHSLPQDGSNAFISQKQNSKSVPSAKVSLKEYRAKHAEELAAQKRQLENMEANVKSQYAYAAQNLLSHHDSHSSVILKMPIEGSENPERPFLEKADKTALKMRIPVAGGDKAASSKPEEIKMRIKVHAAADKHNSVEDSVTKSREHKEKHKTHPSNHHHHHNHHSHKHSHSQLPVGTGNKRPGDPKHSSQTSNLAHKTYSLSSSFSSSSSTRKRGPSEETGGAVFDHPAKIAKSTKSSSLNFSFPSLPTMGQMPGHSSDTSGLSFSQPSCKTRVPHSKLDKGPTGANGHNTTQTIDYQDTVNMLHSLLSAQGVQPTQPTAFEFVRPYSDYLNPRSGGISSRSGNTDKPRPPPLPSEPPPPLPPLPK
Method: as §1, §2, §3

CDK1/CyclinB = target: T3, CDK1/CyclinB (Homo sapiens, UniProt P06493); test: ADP-Glo Kinase Assay, CDK1/CyclinB; assay type: biochemical; settings: read-out: % inhibition at 1 μM CDK1/CyclinB; note: ATP at apparent Km (20 µM)
T3 construct: purchased Millipore, Billerica, Mass., USA
T3 sequence (P06493 whole entry): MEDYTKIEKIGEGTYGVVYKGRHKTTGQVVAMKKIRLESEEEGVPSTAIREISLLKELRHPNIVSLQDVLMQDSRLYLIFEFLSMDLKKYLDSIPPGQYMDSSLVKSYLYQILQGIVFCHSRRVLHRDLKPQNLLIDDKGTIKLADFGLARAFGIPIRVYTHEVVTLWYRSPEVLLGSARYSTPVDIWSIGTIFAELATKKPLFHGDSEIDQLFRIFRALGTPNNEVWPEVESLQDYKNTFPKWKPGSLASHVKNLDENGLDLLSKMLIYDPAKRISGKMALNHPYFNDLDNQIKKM
T3 sequence (P14635 whole entry partner): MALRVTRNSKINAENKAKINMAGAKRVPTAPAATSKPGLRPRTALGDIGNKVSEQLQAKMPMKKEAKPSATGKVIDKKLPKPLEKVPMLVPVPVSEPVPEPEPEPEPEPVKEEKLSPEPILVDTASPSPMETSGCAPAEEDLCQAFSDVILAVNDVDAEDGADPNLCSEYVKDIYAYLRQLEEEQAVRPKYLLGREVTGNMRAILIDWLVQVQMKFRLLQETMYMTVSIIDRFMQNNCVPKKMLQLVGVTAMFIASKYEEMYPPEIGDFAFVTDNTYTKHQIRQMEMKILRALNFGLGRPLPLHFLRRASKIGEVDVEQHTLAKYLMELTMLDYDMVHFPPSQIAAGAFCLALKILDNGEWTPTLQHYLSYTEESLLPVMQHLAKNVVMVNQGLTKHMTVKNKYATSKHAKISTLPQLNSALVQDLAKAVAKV
Method: Testing of the compounds described in this invention was carried out using the ADP-Glo™ Kinase Assay from Promega Corporation (Madison, Wis., USA). […] The ADP-Glo™ Kinase Assay is a luminescent ADP detection assay to measure kinase activity by quantifying the amount of ADP produced during a kinase reaction. The kinase assay is performed in kinase assay buffer (5 mM MOPS, pH 7.5, 5 mM MgCl2, 0.4 mM EDTA, 1.5 mM DTT). Test samples initially dissolved in DMSO at 10 mM were diluted with the assay buffer to 1000 nM. A 30 μL volume/well of a mixture of substrates containing ATP (final ATP concentration in each kinase assay was equal to its apparent ATP Km). […] The assay was performed in two steps: first, after the kinase reaction, an equal volume of ADP-Glo™ Reagent was added to terminate the kinase reaction and deplete the remaining ATP. Second, the Kinase Detection Reagent was added to simultaneously convert ADP to ATP and allowed the newly synthesized ATP to be measured using a luciferase/luciferin reaction. The luminescent signal generated was proportional to the ADP concentration produced and was correlated with kinase activity.

CDK2/CyclinE = target: T4, CDK2/CyclinE (Homo sapiens, UniProt P24941); test: ADP-Glo Kinase Assay, CDK2/CyclinE; assay type: biochemical; settings: read-out: % inhibition at 1 μM CDK2/CyclinE
T4 construct: purchased Millipore, Billerica, Mass., USA
Method: as §1, §2, §3

A549 lung carcinoma = test: Cytotoxic effects, A549; assay type: cell-based, human
HepG2 hepatocarcinoma = test: Cytotoxic effects, HepG2; assay type: cell-based, human
[1] = tested on: MCF7 breast adenocarcinoma; test: Cytotoxic effects, MCF7; assay type: cell-based, human
[2] = tested on: MV4-11 acute myelocytic leukemia (AML); test: Cytotoxic effects, MV4-11; assay type: cell-based, human
Rec-1 B-cell lymphoma = test: Cytotoxic effects, Rec-1; assay type: cell-based, human
[3] = tested on: PC-3 adenocarcinoma prostate; test: Cytotoxic effects, PC-3; assay type: cell-based, human
HCT116 tumor = test: HCT116 xenograft tumor growth in NOD/SCID mice; assay type: in vivo; settings: oral administration, 30 mg/kg
Method: The substituted Tricyclic Benzimidazoles of the present invention are useful as anti-cancer agents due to their ability to reduce tumor growth in vivo in mammals. Various well-accepted animal models exist for cancer. By way of example, antitumor activity can be evaluated in vivo in murine xenograft models. Briefly, female mice, NOD/SCID, 5-6 weeks old, were used for the study. On the 1st experimental day, 5*10^6 HCT116 cells were suspended in 0.1 ml 0.9% NaCl+Matrigel® (BD Biosciences) (1:1, v:v) and were injected subcutaneously, on the right side just above the groin. As the tumor growth was progressing, the tumor size was measured every day, and the tumor volume was computed from the formula: TV=(a*a*b)/2 in mm3, where a is the short axis in mm, and b is the long axis in mm. When the average tumor volume reached and exceeded 100 mm3, mice were randomized into uniform groups and subjected to the compound administrations. The administration of the compound was performed and continued according to the experimental schedule.
The tumor volume was monitored throughout the study and the tumor growth inhibition (TGI) was computed using the following formula: TGI [%]=((Av Norm TGC−Av Norm TGT)/Av Norm TGC)×100, where Av Norm TGC is the mean (average) normalized tumor growth of the control group, and Av Norm TGT is the mean (average) normalized tumor growth of the treated group. […]

T1 sequence (P49336 whole entry): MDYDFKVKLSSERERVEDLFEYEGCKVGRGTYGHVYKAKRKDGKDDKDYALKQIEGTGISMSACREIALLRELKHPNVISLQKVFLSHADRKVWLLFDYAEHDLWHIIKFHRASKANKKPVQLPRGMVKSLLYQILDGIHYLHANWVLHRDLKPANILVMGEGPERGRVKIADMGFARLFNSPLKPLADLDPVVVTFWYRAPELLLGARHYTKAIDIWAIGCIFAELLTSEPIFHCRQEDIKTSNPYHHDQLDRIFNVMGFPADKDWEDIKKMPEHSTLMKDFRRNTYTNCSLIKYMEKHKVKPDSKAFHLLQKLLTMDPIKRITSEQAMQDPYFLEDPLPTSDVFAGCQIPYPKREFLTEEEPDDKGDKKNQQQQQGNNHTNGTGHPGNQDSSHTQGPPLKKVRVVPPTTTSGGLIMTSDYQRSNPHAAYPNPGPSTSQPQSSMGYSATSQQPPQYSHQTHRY
T1 sequence (P24863 whole entry partner): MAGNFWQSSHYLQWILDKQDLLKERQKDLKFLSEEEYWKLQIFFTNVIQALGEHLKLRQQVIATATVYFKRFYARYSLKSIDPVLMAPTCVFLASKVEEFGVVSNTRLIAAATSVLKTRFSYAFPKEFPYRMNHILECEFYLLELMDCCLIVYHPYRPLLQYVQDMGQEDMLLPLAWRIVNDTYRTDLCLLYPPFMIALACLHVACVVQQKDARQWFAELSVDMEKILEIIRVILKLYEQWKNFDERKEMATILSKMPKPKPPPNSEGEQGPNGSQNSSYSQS

Structure (SMILES)	inhibition at 1 µM (CDK8/CyclinC)	inhibition at 1 µM (CDK9/CyclinT)	inhibition at 1 µM (CDK1/CyclinB)	inhibition at 1 µM (CDK2/CyclinE)	cytotoxic effects (A549 lung carcinoma)	cytotoxic effects (HepG2 hepatocarcinoma)	cytotoxic effects [1]	cytotoxic effects [2]	cytotoxic effects (Rec-1 B-cell lymphoma)	cytotoxic effects [3]	HCT116 tumor growth (FIG. 1) (HCT116 tumor)
Cc1c(Br)c(Br)c2c3c1nc(N1CCNCC1)n3CCC2 [Example 1K]	76%	3%	0%	0%	showed cytotoxic effects	showed cytotoxic effects	showed cytotoxic effects	showed cytotoxic effects	showed cytotoxic effects	showed cytotoxic effects	Inhibition of HCT116 tumor growth
Brc1c(Br)c2c3c(nc(N4CCNCC4)n3CCC2)c1Br [Example 6, 7,8,9-tribromo-2-(piperazin-1-yl)-5,6-dihydro-4H-imidazo[4,5,1-ij]quinoline maleate]	96%	55%	38%	0%	showed cytotoxic effects	showed cytotoxic effects	showed cytotoxic effects	showed cytotoxic effects	showed cytotoxic effects	showed cytotoxic effects	Inhibition of HCT116 tumor growth
